Source: patent publication US20090299044A1 (priority 2006, published 2009)
Entries after “also recorded” stand apart in the source; their conditions may differ. Read-outs that look alike come from different tables or passages of the source. Bridge positions count the residues as written; N and C are the ends. Peptide text beside a SMILES is read from it.

Tests used:
[1] = tested on: IFN-g production, human whole blood; type: cell-based
[2] = tested on: IL-2 production, human whole blood; type: cell-based
human Kv1.1 = human Kv1.1 (Homo sapiens, UniProt Q09470); experiment: cell-based or functional assay
human Kv1.1, sequence (Q09470 whole entry): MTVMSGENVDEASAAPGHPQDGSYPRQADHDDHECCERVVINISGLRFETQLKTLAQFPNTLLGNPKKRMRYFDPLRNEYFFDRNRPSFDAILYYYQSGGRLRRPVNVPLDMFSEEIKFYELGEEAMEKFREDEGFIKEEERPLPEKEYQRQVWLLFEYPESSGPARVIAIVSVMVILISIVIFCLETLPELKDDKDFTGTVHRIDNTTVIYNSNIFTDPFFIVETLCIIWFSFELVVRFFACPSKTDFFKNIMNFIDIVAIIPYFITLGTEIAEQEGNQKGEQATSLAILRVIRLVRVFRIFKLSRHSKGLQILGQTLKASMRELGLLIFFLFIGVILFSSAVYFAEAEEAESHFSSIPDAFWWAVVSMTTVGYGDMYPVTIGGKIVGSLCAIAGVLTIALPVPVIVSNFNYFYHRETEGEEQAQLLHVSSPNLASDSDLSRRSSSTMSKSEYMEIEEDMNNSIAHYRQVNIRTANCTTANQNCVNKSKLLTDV

[3] = tested on: CD40L on CD4+ T cells, human whole blood; type: cell-based
human Kv1.3 channel [4] = target: T1, human Kv1.3 channel (Homo sapiens, UniProt P22001); experiment: cell-based; type: cell-based
T1 sequence (P22001 whole entry): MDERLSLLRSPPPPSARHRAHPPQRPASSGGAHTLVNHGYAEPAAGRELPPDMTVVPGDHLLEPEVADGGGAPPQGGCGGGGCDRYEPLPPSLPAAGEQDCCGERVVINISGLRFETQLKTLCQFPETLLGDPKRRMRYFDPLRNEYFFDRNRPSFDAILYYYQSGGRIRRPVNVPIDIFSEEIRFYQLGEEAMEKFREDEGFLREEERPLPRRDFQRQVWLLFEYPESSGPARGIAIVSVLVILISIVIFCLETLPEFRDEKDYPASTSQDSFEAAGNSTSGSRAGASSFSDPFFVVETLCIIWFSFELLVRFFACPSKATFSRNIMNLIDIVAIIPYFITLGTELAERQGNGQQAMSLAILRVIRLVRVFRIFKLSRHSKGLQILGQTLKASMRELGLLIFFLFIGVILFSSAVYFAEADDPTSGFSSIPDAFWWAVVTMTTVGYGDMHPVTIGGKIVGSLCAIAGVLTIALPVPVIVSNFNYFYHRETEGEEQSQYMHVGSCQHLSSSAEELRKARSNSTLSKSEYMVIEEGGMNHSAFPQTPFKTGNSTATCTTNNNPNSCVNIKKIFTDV

[5] = tested on: IL-2R on CD4+ T cells, human whole blood; type: cell-based
[6] = target: human Kv1.1 voltage-gated potassium channel (human) (UniProt Q09470); experiment: cell-based or functional assay
human Kv1.1 voltage-gated potassium channel (human), sequence (Q09470 whole entry): as the sequence (Q09470 whole entry) above

[7] = target: human Kv1.3 voltage-gated potassium channel (human) (UniProt P22001); experiment: cell-based or functional assay
human Kv1.3 voltage-gated potassium channel (human), sequence (P22001 whole entry): as the sequence (P22001 whole entry) above

human Kv1.3 channel [8] = target: T1, human Kv1.3 channel; experiment: cell-based or functional assay

`CC[C@H](C)[C@@H]1NC(=O)[C@H](CCCCN)NC(=O)[C@@H](NC(=O)[C@H](CCCCN)NC(=O)[C@@H](NC(=O)[C@H](CC(N)=O)NC(=O)[C@@H](NC(=O)[C@@H](NC(=O)[C@@H](NC(=O)CN)C(C)C)[C@@H](C)CC)[C@@H](C)CC)C(C)C)CSSC[C@@H]2NC(=O)[C@H](CCCCN)NC(=O)CNC(=O)[C@H](Cc3ccccc3)NC(=O)[C@H](CCCNC(=N)N)NC(=O)[C@H](CCSC)NC(=O)CNC(=O)[C@H](C)NC(=O)[C@H](CCCCN)NC(=O)[C@H](CCCCN)NC(=O)[C@@H]3CSSC[C@@H](C(=O)N[C@H](C(=O)N4CCC[C@H]4C(=O)N[C@@H](CCCCN)C(=O)O)[C@@H](C)O)NC(=O)[C@H](Cc4c[nH]cn4)NC(=O)[C@H](CSSC[C@H](NC(=O)[C@H](CCC(N)=O)NC(=O)[C@H](CCCNC(=N)N)NC(=O)[C@H](CCC(=O)O)NC1=O)C(=O)N[C@@H](CC(C)C)C(=O)N[C@@H](CCC(=O)O)C(=O)N1CCC[C@H]1C(=O)N3)NC(=O)[C@H](CCCCN)NC(=O)CNC(=O)[C@H](CC(N)=O)NC(=O)[C@H](CCSC)NC2=O` [S11E] (H-GVIINVKCKIERQCLEPCKKAGMRFGKCMNGKCHCTPK-OH; disulfide 8-28, 14-33, 18-35) gave an IC50 ([1]; read-out: Analogue Activity (IC50, pM) WB/IFNg) of 16900 pM and an IC50 ([2]; read-out: Analogue Activity (IC50, pM) WB/IL-2) of 39900 pM.

In the case of Fc-L10-OSK1 (CHO-expressed) (Fc fusion), the hKv1.1: IC50 (whole cell patch clamp, block of K+ current) (human Kv1.1) is reported as 41.6 nM.

For “Fc-L10-ShK[2-35]: human IgG1 Fc fused via 10 amino acid linker to ShK[2-35], CHO-derived peptibody”, the “thapsigargin-induced upregulation of CD40L on T cells in human whole blood (in words)” value [3] was “blocked”, the “thapsigargin-induced IFN-g production in human whole blood (in words)” value [1] was “suppressed; also recorded: blocked” and the “block of human Kv1.3 current (in words)” value (human Kv1.3 channel [4]) was “potently blocks”. For the same molecule, the “thapsigargin-induced IL-2 production in human whole blood (in words)” value [2] was “potently blocked IL-2 secretion in human whole blood; also recorded: suppressed” and the “thapsigargin-induced upregulation of the IL-2R on T cells in human whole blood (in words)” value [5] was “suppressing activation of the IL-2R on CD4+ T cells; also recorded: blocked”.

“IbTx: BKCa channel inhibitor iberiotoxin, Bachem (QFTDVDCSVSKECWSVCKDLFGVDRGKCMGKKCRCYQ; Definition of Artificial Sequence: Synthetic peptide) [reference compound]” was tested, and the “thapsigargin-induced upregulation of CD40L on T cells in human whole blood (in words)” value [3] was “no significant activity”, the “thapsigargin-induced IFN-g production in human whole blood (in words)” value [1] was “no significant activity” and the “thapsigargin-induced IL-2 production in human whole blood (in words)” value [2] was “no significant activity”. The “thapsigargin-induced upregulation of the IL-2R on T cells in human whole blood (in words)” value [5] was “no significant activity”.

With “OSK1 (native Orthochirus scrobiculosus toxin peptide)” the Kv1.1 (IC50, pM), whole cell patch clamp ePhys [6] was 202 pM, the Kv1.3 (IC50, pM), whole cell patch clamp ePhys [7] was 39 pM and the Kv1.3 Selectivity (=Kv1.1/Kv.3 IC50) [7] was 5.

For Synthetic OSK1 toxin peptide, the hKv1.1: IC50 (whole cell patch clamp, block of K+ current) (human Kv1.1) was 0.16 nM and the hKv1.3: IC50 (whole cell patch clamp, block of K+ current) (human Kv1.3 channel [8]) was 0.039 nM.

B1: MGGHHHHHHGGGPSVFLFPPKPKDTLMISRTPEVTCVVVDVSHEDPEVKFNWYVDGVEVHNAKTKPREEQYNSTYRVVSVLTVLHQDWLNGKEYKCKVSNKALPAPIEKTISGGGGSGGGGSGVIINVKCKISRQCLEPCKKAGMRFGKCMNGKCHCTPK (protein)
chain: MGGHHHHHHGGGPSVFLFPPKPKDTLMISRTPEVTCVVVDVSHEDPEVKFNWYVDGVEVHNAKTKPREEQYNSTYRVVSVLTVLHQDWLNGKEYKCKVSNKALPAPIEKTISGGGGSGGGGSGVIINVKCKISRQCLEPCKKAGMRFGKCMNGKCHCTPK
B1 was tested, and the IC50 ([1]; read-out: WB/IFNg (IC50)) was 55200 pM, the “blockade of the whole blood cytokine response (IL-2 and IFNg), in words” value [2] was “active in blocking inflammation; also recorded: modest blockade” and the IC50 ([2]; read-out: WB/IL-2 (IC50)) was 38500 pM.
